{
  "source": "PubChem BioAssay AID290",
  "about": "(DTP/NCI, 2004)",
  "system": "mice, P1798 lymphosarcoma sc, survival or tumor weight T/C",
  "assay": "NCI In Vivo Anticancer Drug Screen. Data for tumor model P1798 Lymphosarcoma (subcutaneous) in unknown mice",
  "protocol": "The antitumor activity of compounds was measured in mice bearing transplantable tumors. Survival or tumor size were measured and the results are expressed as the measurement made in the treated group (T) divided by the measurement made in the vehicle treated control group (C). The tumor model used in this assay is P1798 Lymphosarcoma (subcutaneous) in unknown mice",
  "key": {"[1]": {"settings": "endpoint: mean tumor weight, dose: 5.0 mg/kg/injection, schedule: Q01DX010 (ip), vehicle: saline, higher = larger tumour"}, "[2]": {"settings": "endpoint: mean tumor weight, dose: 12.5 mg/kg/injection, schedule: Q01DX010 (ip), vehicle: saline, higher = larger tumour"}},
  "note": "Where “and” joins values, the source holds several entries; their conditions need not be identical. Identical values can stand only once. Records with an inconclusive call do not appear.",
  "data": [
    {"smiles": "O=C(O)c1ccc(-c2ccccc2)cc1", "values": [
      {"measurement": "T/C", "setting": "endpoint: mean tumor weight, dose: 62.5 mg/kg/injection, schedule: Q01DX010 (ip), vehicle: carboxymethylcellulose (CMC), higher = larger tumour", "result": "101 % of control"},
      {"measurement": "T/C", "setting": "endpoint: mean tumor weight, dose: 125.0 mg/kg/injection, schedule: Q01DX010 (ip), vehicle: carboxymethylcellulose (CMC), higher = larger tumour", "result": "92 % of control"},
      {"measurement": "T/C", "setting": "endpoint: mean tumor weight, dose: 250.0 mg/kg/injection, schedule: Q01DX010 (ip), vehicle: carboxymethylcellulose (CMC), higher = larger tumour", "result": "95 % of control"}
    ]},
    {"smiles": "O=c1cn[nH]c(=O)[nH]1", "values": [
      {"measurement": "T/C", "setting": "endpoint: mean tumor weight, dose: 375.0 mg/kg/injection, schedule: Q01DX010 (ip), vehicle: carboxymethylcellulose (CMC), higher = larger tumour", "result": "90 % of control"}
    ]},
    {"smiles": "O=c1[nH]cc(F)c(=O)[nH]1", "values": [
      {"measurement": "T/C", "setting": "endpoint: mean tumor weight, dose: 2.0 mg/kg/injection, schedule: Q01DX010 (ip), vehicle: saline, higher = larger tumour", "result": "119 % of control"},
      {"measurement": "T/C", "setting": "endpoint: mean tumor weight, dose: 2.5 mg/kg/injection, schedule: Q01DX015 (ip), vehicle: carboxymethylcellulose (CMC), higher = larger tumour", "result": "108 % of control"},
      {"measurement": "T/C", "setting": "[1]", "result": "36 % of control"},
      {"measurement": "T/C", "setting": "endpoint: mean tumor weight, dose: 6.3 mg/kg/injection, schedule: Q01DX010 (ip), vehicle: saline, higher = larger tumour", "result": "44 % of control"},
      {"measurement": "T/C", "setting": "endpoint: mean tumor weight, dose: 10.0 mg/kg/injection, schedule: Q01DX015 (ip), vehicle: carboxymethylcellulose (CMC), higher = larger tumour", "result": "119 % of control"},
      {"measurement": "T/C", "setting": "[2]", "result": "27 % of control"},
      {"measurement": "T/C", "setting": "endpoint: mean tumor weight, dose: 40.0 mg/kg/injection, schedule: Q01DX001 (ip), vehicle: carboxymethylcellulose (CMC), higher = larger tumour", "result": "71 % of control"},
      {"measurement": "T/C", "setting": "endpoint: mean tumor weight, dose: 80.0 mg/kg/injection, schedule: Q01DX001 (ip), vehicle: carboxymethylcellulose (CMC), higher = larger tumour", "result": "69 % of control"},
      {"measurement": "T/C", "setting": "endpoint: median survival time, dose: 5.0 mg/kg/injection, schedule: Q01DX010 (ip), vehicle: saline, higher = longer survival", "result": "97 % of control and 103 % of control (2×)"},
      {"measurement": "T/C", "setting": "endpoint: median survival time, dose: 10.0 mg/kg/injection, schedule: Q01DX010 (ip), vehicle: saline, higher = longer survival", "result": "117 % of control (2×) and 103 % of control"},
      {"measurement": "T/C", "setting": "endpoint: median survival time, dose: 20.0 mg/kg/injection, schedule: Q01DX010 (ip), vehicle: saline, higher = longer survival", "result": "116 % of control and 39 % of control"},
      {"measurement": "T/C", "setting": "endpoint: median survival time, dose: 40.0 mg/kg/injection, schedule: Q01DX010 (ip), vehicle: saline, higher = longer survival", "result": "24 % of control and 28 % of control"},
      {"measurement": "T/C", "setting": "endpoint: median survival time, dose: 80.0 mg/kg/injection, schedule: Q01DX010 (ip), vehicle: saline, higher = longer survival", "result": "26 % of control"}
    ]},
    {"smiles": "C[C@]12C=CC(=O)C=C1CC[C@@H]1[C@@H]2[C@@H](O)C[C@@]2(C)[C@H]1CC[C@]2(O)C(=O)CO", "values": [
      {"measurement": "T/C", "setting": "endpoint: mean tumor weight, dose: 31.3 mg/kg/injection, schedule: Q01DX010 (sc), vehicle: steriod suspending solution, higher = larger tumour", "result": "22 % of control"},
      {"measurement": "T/C", "setting": "endpoint: mean tumor weight, dose: 62.5 mg/kg/injection, schedule: Q01DX010 (sc), vehicle: steriod suspending solution, higher = larger tumour", "result": "8 % of control"}
    ]},
    {"smiles": "CC1(O)CCC2C3CCC4=CC(=O)CCC4C3CCC21C", "note": "(stereo not given)", "values": [
      {"measurement": "T/C", "setting": "endpoint: mean tumor weight, dose: 75.0 mg/kg/injection, schedule: Q01DX010 (sc), vehicle: steriod suspending solution, higher = larger tumour", "result": "116 % of control"},
      {"measurement": "T/C", "setting": "endpoint: mean tumor weight, dose: 150.0 mg/kg/injection, schedule: Q01DX010 (sc), vehicle: steriod suspending solution, higher = larger tumour", "result": "115 % of control"},
      {"measurement": "T/C", "setting": "endpoint: mean tumor weight, dose: 300.0 mg/kg/injection, schedule: Q01DX010 (sc), vehicle: steriod suspending solution, higher = larger tumour", "result": "109 % of control"},
      {"measurement": "T/C", "setting": "endpoint: mean tumor weight, dose: 600.0 mg/kg/injection, schedule: Q01DX010 (sc), vehicle: steriod suspending solution, higher = larger tumour", "result": "122 % of control"}
    ]},
    {"smiles": "O=c1[nH]c2cc(Cl)c(Cl)cc2o1", "values": [
      {"measurement": "T/C", "setting": "endpoint: mean tumor weight, dose: 12.5 mg/kg/injection, schedule: Q01DX010 (ip), vehicle: carboxymethylcellulose (CMC), higher = larger tumour", "result": "78 % of control"},
      {"measurement": "T/C", "setting": "endpoint: mean tumor weight, dose: 25.0 mg/kg/injection, schedule: Q01DX010 (ip), vehicle: carboxymethylcellulose (CMC), higher = larger tumour", "result": "76 % of control"},
      {"measurement": "T/C", "setting": "endpoint: mean tumor weight, dose: 50.0 mg/kg/injection, schedule: Q01DX010 (ip), vehicle: carboxymethylcellulose (CMC), higher = larger tumour", "result": "117 % of control"},
      {"measurement": "T/C", "setting": "endpoint: mean tumor weight, dose: 100.0 mg/kg/injection, schedule: Q01DX010 (ip), vehicle: carboxymethylcellulose (CMC), higher = larger tumour", "result": "61 % of control"}
    ]},
    {"smiles": "CC(=O)[C@@]1(O)CC[C@H]2[C@@H]3C[C@H](C)C4=CC(=O)C=C[C@]4(C)[C@@]3(F)[C@@H](O)C[C@@]21C", "values": [
      {"measurement": "T/C", "setting": "endpoint: mean tumor weight, dose: 8.0 mg/kg/injection, schedule: Q01DX010 (sc), vehicle: steriod suspending solution, higher = larger tumour", "result": "37 % of control"},
      {"measurement": "T/C", "setting": "endpoint: mean tumor weight, dose: 16.0 mg/kg/injection, schedule: Q01DX010 (sc), vehicle: steriod suspending solution, higher = larger tumour", "result": "18 % of control"}
    ]},
    {"smiles": "COS(C)(=O)=O", "values": [
      {"measurement": "T/C", "setting": "[2]", "result": "98 % of control"},
      {"measurement": "T/C", "setting": "endpoint: mean tumor weight, dose: 25.0 mg/kg/injection, schedule: Q01DX010 (ip), vehicle: saline, higher = larger tumour", "result": "80 % of control"},
      {"measurement": "T/C", "setting": "endpoint: mean tumor weight, dose: 50.0 mg/kg/injection, schedule: Q01DX010 (ip), vehicle: saline, higher = larger tumour", "result": "81 % of control"},
      {"measurement": "T/C", "setting": "endpoint: mean tumor weight, dose: 100.0 mg/kg/injection, schedule: Q01DX010 (ip), vehicle: saline, higher = larger tumour", "result": "57 % of control"}
    ]},
    {"smiles": "CCn1cnc2c(=S)nc[nH]c21", "values": [
      {"measurement": "T/C", "setting": "endpoint: mean tumor weight, dose: 7.75 mg/kg/injection, schedule: Q01DX010 (ip), vehicle: carboxymethylcellulose (CMC), higher = larger tumour", "result": "117 % of control"},
      {"measurement": "T/C", "setting": "endpoint: mean tumor weight, dose: 15.5 mg/kg/injection, schedule: Q01DX010 (ip), vehicle: carboxymethylcellulose (CMC), higher = larger tumour", "result": "95 % of control"},
      {"measurement": "T/C", "setting": "endpoint: mean tumor weight, dose: 31.0 mg/kg/injection, schedule: Q01DX010 (ip), vehicle: carboxymethylcellulose (CMC), higher = larger tumour", "result": "82 % of control"}
    ]},
    {"smiles": "NC(=O)c1ccc(N)nc1", "values": [
      {"measurement": "T/C", "setting": "endpoint: mean tumor weight, dose: 0.63 mg/kg/injection, schedule: Q01DX010 (ip), vehicle: saline, higher = larger tumour", "result": "71 % of control"},
      {"measurement": "T/C", "setting": "endpoint: mean tumor weight, dose: 1.25 mg/kg/injection, schedule: Q01DX010 (ip), vehicle: saline, higher = larger tumour", "result": "82 % of control"},
      {"measurement": "T/C", "setting": "endpoint: mean tumor weight, dose: 2.5 mg/kg/injection, schedule: Q01DX010 (ip), vehicle: saline, higher = larger tumour", "result": "52 % of control"},
      {"measurement": "T/C", "setting": "[1]", "result": "21 % of control"}
    ]}
  ]
}
